Patent US20150246024A1 (priority 2012, published 2015)
Values after ≈ are worked out from the molar mass of the structure shown. Values joined by “and” are separate entries in the source; they are usually repeats but may differ in a detail not shown here. Equal entries are not always repeated. “Also recorded” adds a separate entry of the source.

How the values were obtained:
S. aureus - MRSA USA300 = test: microbe, parasite or virus in culture; format: cell-based; details: 37° C., 18-22 hours, OD600
S. aureus RN4220 (MSSA) = test: microbe, parasite or virus in culture; format: cell-based; details: 37° C., 18-22 hours, OD600
E. faecalis - VRE V583 = test: microbe, parasite or virus in culture; format: cell-based; details: 37° C., 18-22 hours, OD600
E. faecium - VRE TX0016 = test: microbe, parasite or virus in culture; format: cell-based; details: 37° C., 18-22 hours, OD600
C. perfringens SM101 = format: cell-based; details: nitrogen atmosphere, 37° C., 18-22 hours
B. anthracis Ames = format: cell-based; details: 37° C., 18-22 hours, OD600
B. anthracis Sterne [1] = test: microbe, parasite or virus in culture; format: cell-based; details: 37° C., 18-22 hours, OD600
B. cereus G9142 = format: cell-based
C. difficile CD196 = test: Growth inhibition assay (MIC/IC50), 96-well; format: cell-based
C. difficile JIR8094 = test: Growth inhibition assay (MIC/IC50), 96-well; format: cell-based; details: sigmoidal fit
C. difficile R20291 = test: Growth inhibition assay (MIC/IC50), 96-well; format: cell-based
C. difficile UK1 = test: Growth inhibition assay (MIC/IC50), 96-well; format: cell-based
[2] = tested on: S. aureus RN4220 colony isolates from gradient plates with 10-200 μM compound 1771; test: Susceptibility of colony isolates from compound 1771 gradient plates; format: cell-based
E. coli = format: cell-based
[3] = target: Recombinant S. aureus LtaSSA expressed in E. coli (Staphylococcus aureus, UniProt Q2G093); format: cell-based
Chain of Recombinant S. aureus LtaSSA expressed in E. coli (Q2G093 whole entry): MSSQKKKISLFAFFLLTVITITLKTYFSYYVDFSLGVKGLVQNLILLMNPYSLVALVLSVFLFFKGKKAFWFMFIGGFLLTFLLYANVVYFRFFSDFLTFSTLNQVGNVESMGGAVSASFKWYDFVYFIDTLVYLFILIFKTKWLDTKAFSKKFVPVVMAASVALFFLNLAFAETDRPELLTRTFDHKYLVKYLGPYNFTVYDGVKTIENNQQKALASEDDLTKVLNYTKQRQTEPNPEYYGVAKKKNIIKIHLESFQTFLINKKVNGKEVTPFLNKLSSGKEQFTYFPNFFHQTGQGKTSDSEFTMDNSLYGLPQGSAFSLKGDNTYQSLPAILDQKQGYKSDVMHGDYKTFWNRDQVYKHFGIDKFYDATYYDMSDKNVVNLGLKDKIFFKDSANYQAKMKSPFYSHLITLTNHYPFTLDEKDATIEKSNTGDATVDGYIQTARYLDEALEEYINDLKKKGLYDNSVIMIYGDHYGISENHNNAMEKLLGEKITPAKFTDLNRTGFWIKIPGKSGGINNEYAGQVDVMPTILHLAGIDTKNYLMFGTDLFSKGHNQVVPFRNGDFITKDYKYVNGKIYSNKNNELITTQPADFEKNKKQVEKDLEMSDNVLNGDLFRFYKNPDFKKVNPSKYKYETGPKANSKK

[4] = tested on: B. anthracis LtaS2BA expressed in E. coli; format: cell-based; details: 200 μM compound
[5] = target: extracellular S. aureus LtaS (eLtaS) (Staphylococcus aureus, UniProt Q2G093); format: binding; details: 200 μM compound in mobile phase
Chain of extracellular S. aureus LtaS (eLtaS) (Q2G093 218-646): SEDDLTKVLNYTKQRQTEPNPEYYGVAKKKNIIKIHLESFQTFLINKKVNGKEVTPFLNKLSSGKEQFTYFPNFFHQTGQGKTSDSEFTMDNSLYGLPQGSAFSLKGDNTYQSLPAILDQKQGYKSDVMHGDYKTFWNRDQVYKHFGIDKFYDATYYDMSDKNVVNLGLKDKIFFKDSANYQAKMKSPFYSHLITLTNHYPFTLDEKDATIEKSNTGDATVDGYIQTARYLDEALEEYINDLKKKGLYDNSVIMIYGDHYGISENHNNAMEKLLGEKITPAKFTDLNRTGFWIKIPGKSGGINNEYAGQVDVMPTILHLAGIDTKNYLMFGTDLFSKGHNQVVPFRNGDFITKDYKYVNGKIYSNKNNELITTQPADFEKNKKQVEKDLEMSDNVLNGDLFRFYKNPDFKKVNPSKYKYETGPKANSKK

eLtaS = eLtaS (Staphylococcus aureus, UniProt Q2G093); test: eLtaS-mediated cleavage of NBD-PGC6 to NBD-DAGC6; format: biochemical, S. aureus; details: 100 μM compound, 6 hours, 37° C.
Chain of eLtaS (Q2G093 218-646): as above
Protocol: FIG. 10. Compound 1771 inhibits eLtaS binding to and cleavage of phosphatidylglycerol (PG) in vitro. Using NBD-PGC6 with 6 carbon acyl chains cleavage of 2 nmol substrate by 2 nmol eLtaS was detectable after 6 hours incubation at 37° C. Chloroform extraction separated non-hydrolyzed NBD-PGC6 (aqueous phase—AP) from the hydrophobic reaction product nitro-benzoxadiazole diacylglycerol (NBD-DAGC6), which segregated into the organic phase (OP). Both phases were analyzed by normal-phase HPLC on a diol column (solid line). Elution profiles were monitored by fluorescence (excitation at 460 nm, emission at 534 nm). Identity of peak fractions was confirmed by mass spectrometry. Addition of 100 μM compound 1771 blocked NBD-DAGC6 production by eLtaS (dashed line).
We used size exclusion HPLC with BioBasic SEC300 column equilibrated with 20 nmol nitro-benzoxadiazole glycerol-phosphate (NBD-GP) to measure binding of enzyme to substrate. Chromatography of 2 nmol eLtaS on BioBasic SEC300 column led to the elution of enzyme.NBD-GP complex and absorbance at 460 nm (FIG. 5). […]

[6] = Half-life of compound in mice (blood, HPLC, mass spectrometry); format: in vivo; details: 32 mg/kg intraperitoneal
Protocol: The therapeutic impact of compound 1771 during infection was examined. First, we evaluated the half-life of compound 1771 in vivo. Animals received intraperitoneal injections with 32 mg/kg of compound. The blood of three animals was drawn 1, 6 and 12 hours following intraperitoneal injections and the compound was extracted with methanol and chloroform, separated by reverse phase HPLC and subjected to mass spectrometry (data not shown). […] The conversion occurred between 3 and 6 hours. To evaluate, the efficacy of compound 1771, we used a mouse model of staphylococcal sepsis. Animals received intraperitoneal injections with 32 mg/kg of compound in 12-hour intervals. Treatment was initiated 24 hours prior to challenge and terminated at 72 hours post infection.
To examine the therapeutic value of compound 1771, we evaluated its half-life in mice. Animals received a single intraperitoneal injection of 32 mg/kg compound 1771. The blood of three animals was drawn 1, 6 and 12 hours following 1771 injection and serum samples were extracted with methanol and chloroform, separated by reversed-phase HPLC and subjected to mass spectrometry. […] Full conversion of compound 1771 into its two cleavage fragments occurred between 3 and 6 hours following injection. […]

S. aureus RN4220 [7] = format: cell-based
E. faecalis V583 [8] = format: cell-based
E. faecium TX0016 [9] = format: cell-based
S. aureus RN4220 [10] = format: cell-based; remark: listed apart in the source
E. faecalis V583 [11] = format: cell-based; remark: listed apart in the source
E. faecium TX0016 [12] = format: cell-based; remark: listed apart in the source
B. anthracis Sterne [13] = format: cell-based
B. anthracis Sterne [14] = format: cell-based; details: 5 μM compound, liquid culture
[15] = tested on: LTA production in S. aureus; test: Inhibition of LTA synthesis in S. aureus (immunoblot)
S. aureus RN4220 [16] = test: Growth of S. aureus culture with sub-lethal compound (OD600); details: until control culture OD600 1.0

With `O=C(COC(=O)Cc1coc2ccc3ccccc3c12)Nc1nnc(-c2ccccc2)o1` [Compound 1771, 2-oxo-2-[(5-phenyl-1,3,4-oxadiazol-2-yl)amino]ethylnaphtho[2,1-b]furan-1-ylacetate] the MIC (S. aureus - MRSA USA300) was 50.0 µM (≈ 21.4 µg/mL), the IC50 (S. aureus - MRSA USA300; sigmoidal fit, read-out: IC50) was 14 µM and the MIC (S. aureus RN4220 (MSSA)) was 12.5 µM (≈ 5.34 µg/mL). The IC50 (S. aureus RN4220 (MSSA); sigmoidal fit, read-out: IC50) was 7.48 µM and 7.3 µM, the MIC (E. faecalis - VRE V583) was 50.0 µM (≈ 21.4 µg/mL) and the IC50 (E. faecalis - VRE V583; sigmoidal fit, read-out: IC50) was 27.3 µM. It also gave an MIC (E. faecium - VRE TX0016) of 50.0 µM (≈ 21.4 µg/mL), an IC50 (E. faecium - VRE TX0016; sigmoidal fit, read-out: IC50) of 23.3 µM and an MIC (C. perfringens SM101) of 6.2 µM (≈ 2.65 µg/mL). For the same compound, the IC50 (C. perfringens SM101; sigmoidal fit) was 2.5 µM, the MIC (B. anthracis Ames) was 12.5 µM (≈ 5.34 µg/mL) and the IC50 (B. anthracis Ames; sigmoidal fit) was 7.6 µM. The MIC (B. anthracis Sterne [1]) was 12.5 µM (≈ 5.34 µg/mL), the IC50 (B. anthracis Sterne [1]; sigmoidal fit, read-out: IC50) was 7.7 µM and 6.53 µM and the IC50 (B. cereus G9142) was 10.7 µM. The MIC (B. cereus G9142) was 25.0 µM (≈ 10.7 µg/mL), the MIC (C. difficile CD196) was 6.5 µM (≈ 2.78 µg/mL) and the IC50 (C. difficile CD196; sigmoidal fit) was 4.3 µM. For the same compound, the IC50 (C. difficile JIR8094) was 8.2 µM, the MIC (C. difficile R20291) was 6.2 µM (≈ 2.65 µg/mL) and the IC50 (C. difficile R20291; sigmoidal fit) was 5.3 µM. The MIC (C. difficile UK1) was 6.2 µM (≈ 2.65 µg/mL), the IC50 (C. difficile UK1; sigmoidal fit) was 3.3 µM and the IC50 ([2]; Isolate 1) was 8.7 µM. The MIC ([2]; Isolate 1) was 18.8 µM (≈ 8.04 µg/mL), the IC50 ([2]; Isolate 2) was 9.2 µM and the MIC ([2]; Isolate 2) was 18.8 µM (≈ 8.04 µg/mL). The IC50 ([2]; Isolate 3) was 12.2 µM, the MIC ([2]; Isolate 3) was 18.8 µM (≈ 8.04 µg/mL) and the “growth of E. coli” value (E. coli) was “not affected; also recorded: did not affect the growth”. For the same compound, the “production of LTA promoted by plasmid encoded LtaSSA” value [3] was “abrogated”, the “LTA production by LtaS2BA” value [4] was “completely abolished; also recorded: abrogated” and the “Co-elution of phosphatidylglycerol with eLtaS, reduction” value [5] was “more than 95%”. The “elution of NBD-PG.eLtaS complex” value [5] was “abolished”, the “NBD-DAGC6 production by eLtaS” value (eLtaS) was “blocked; also recorded: inhibited” and the stability in mice [6] was “unstable in mice with rapid loss of activity”. The Cell clusters/all cocci (S. aureus RN4220 [7]) was 3/387, the Cell clusters/all cocci (E. faecalis V583 [8]) was 2/496 and the Cell clusters/all cocci (E. faecium TX0016 [9]) was 1/295. The Cell envelope diameter (S. aureus RN4220 [10]) was 38.8 (±0.9) nm, the “Cell envelope diameter Δ (1771 vs mock)” value (S. aureus RN4220 [10]) was 7.5 (±1.1) nm and the Cell envelope diameter (E. faecalis V583 [11]) was 31.6 (±0.6) nm. For the same compound, the “Cell envelope diameter Δ (1771 vs mock)” value (E. faecalis V583 [11]) was 7.8 (±0.7) nm, the Cell envelope diameter (E. faecium TX0016 [12]) was 32.4 (±0.5) nm and the “Cell envelope diameter Δ (1771 vs mock)” value (E. faecium TX0016 [12]) was 9.6 (±0.6) nm. For the same compound, the “Cell envelope diameter Δ (1771 vs mock)” value (B. anthracis Sterne [13]; 8 μM compound) was 6.3 (±1.0) nm, the Cell envelope diameter (B. anthracis Sterne [13]; BHI agar with 8 μM compound, mean of 124 (SEM)) was 46.8 (±0.7) nm and the “chain length of vegetative bacilli” value (B. anthracis Sterne [14]) was “increased chain length; also recorded: formed longer chains”. The LtaS immunoreactive signals ([15]; 5 μM compound) was “slightly unstable; also recorded: reduced”, the “abundance of sortase A (SrtA), control” value ([15]; 2 or 5 μM compound) was “remained unaffected; also recorded: not affected” and the “LTA production (immunoblot α-LTA)” value ([15]; sub-lethal concentrations of compound) was “affect the production of LTA; also recorded: reduced the abundance of LTA”. For the same compound, the “reduced growth of staphylococci” value (S. aureus RN4220 [16]; 2 μM compound) was 50% and the “reduced growth of staphylococci” value (S. aureus RN4220 [16]; 5 μM compound) was 75%.
